Holding throughout (assay type): cell-based
Assay [1] relates to Staphylococcus aureus ATCC 6538 resistant to bacitracin. As to the kind of experiment: microbe, parasite or virus in culture. Conditions: ATCC6538. An excerpt:
(§1) The new antibiotic substance is active also against microorganism strains which are resistant to other commonly used antibiotics.

The subject of assay [2] is Staphylococcus aureus ATCC 6538 resistant to cephaloridine. Description: microbe, parasite or virus in culture. Conditions: ATCC6538.
Source text: as §1

For assay [3], the system named is Staphylococcus aureus ATCC 6538 resistant to chloramphenicol. Description: microbe, parasite or virus in culture. Conditions: ATCC6538.
Source text: as §1

In assay [4] the test system is Staphylococcus aureus ATCC 6538 resistant to erythromycin. Description: microbe, parasite or virus in culture. Conditions: ATCC6538.
Source text: as §1

For assay [5], the system named is Staphylococcus aureus ATCC 6538 resistant to kanamycin. Description: MIC against resistant Staphylococcus aureus strains (Table III). Conditions: ATCC6538.
Source text: as §1

For assay [6], the system named is Staphylococcus aureus ATCC 6538 resistant to lincomycin. As to the kind of experiment: microbe, parasite or virus in culture. Conditions: ATCC6538.
Source text: as §1

The test system of assay [7] is Staphylococcus aureus ATCC 6538 resistant to penicillin. Description: microbe, parasite or virus in culture. Conditions: ATCC6538.
Source text: as §1

In assay [8] the test system is Staphylococcus aureus ATCC 6538 resistant to rifampicin. Description: MIC against resistant Staphylococcus aureus strains (Table III). Conditions: ATCC6538.
Source text: as §1

The subject of assay [9] is Staphylococcus aureus Tour resistant to streptomycin. The description is as above. Conditions: S. aureus Tour resistant to streptomycin.
Source text: as §1

In assay [10] the test system is Staphylococcus aureus ATCC 6538 resistant to tetracycline. The description is as above. Conditions: ATCC6538.
Source text: as §1

The test system of assay [11] is Staphylococcus aureus ATCC 6538 resistant to neomycin. The assay is described as above. Conditions: S. aureus ATCC 6538 resistant to neomycin.
Source text: as §1

Bridge positions count the residues as written; N and C are the ends. Square brackets hold non-standard residues; d marks the D form. Peptide text beside a SMILES is read from it. * marks the point of attachment. Ileψ(thiazoline)Cys = CC[C@H](C)[C@H](N)C1=N[C@H](C(=O)*)CS1; dOrn = NCCC[C@@H](N)C(=O)O Where only a bound is given, the exact number is not on record here.

The values below come from US4280001A, “Biologically pure culture” (priority 1976, dated 1981).

On to `CC[C@H](C)[C@H](N)C1=N[C@H](C(=O)N[C@@H](CC(C)C)C(=O)N[C@H](CCC(=O)O)C(=O)N[C@H](C(=O)N[C@H]2CCCCNC(=O)[C@H](CC(N)=O)NC(=O)[C@@H](CC(=O)O)NC(=O)[C@H](Cc3cnc[nH]3)NC(=O)[C@@H](Cc3ccccc3)NC(=O)[C@H]([C@@H](C)CC)NC(=O)[C@@H](CCCN)NC2=O)[C@@H](C)CC)CS1` [bacitracin] ({Ileψ(thiazoline)Cys}-L[dE]IK[dOrn]I[dF]H[dD]N; lactam 4-C), for which the MIC in assay [1] was over 100 µg/mL.

`O=C(Cc1cccs1)N[C@@H]1C(=O)N2C(C(=O)[O-])=C(C[n+]3ccccc3)CS[C@H]12` [cephaloridine] had an MIC in assay [2] of over 100 µg/mL.

Regarding `O=C(N[C@H](CO)[C@H](O)c1ccc([N+](=O)[O-])cc1)C(Cl)Cl` [chloramphenicol], the MIC in assay [3] was over 100 µg/mL.

On to `CC[C@H]1OC(=O)[C@H](C)[C@@H](O[C@H]2C[C@@](C)(OC)[C@@H](O)[C@H](C)O2)[C@H](C)[C@@H](O[C@@H]2O[C@H](C)C[C@H](N(C)C)[C@H]2O)[C@](C)(O)C[C@@H](C)C(=O)[C@H](C)[C@@H](O)[C@]1(C)O` [erythromycin], for which the MIC in assay [4] was over 100 µg/mL.

On to `NC[C@H]1O[C@H](O[C@H]2[C@H](O)[C@@H](O[C@H]3O[C@H](CO)[C@@H](O)[C@H](N)[C@H]3O)[C@H](N)C[C@@H]2N)[C@H](O)[C@@H](O)[C@@H]1O` [kanamycin], for which the MIC in assay [5] is over 100 µg/mL.

As for `CCC[C@@H]1C[C@@H](C(=O)N[C@@H]([C@H]2O[C@H](SC)[C@H](O)[C@@H](O)[C@H]2O)[C@@H](C)O)N(C)C1` [lincomycin], the MIC in [6] is over 100 µg/mL.

`CC1(C)S[C@@H]2[C@H](NC(=O)Cc3ccccc3)C(=O)N2[C@H]1C(=O)O` [penicillin] displayed an MIC in [7] of over 100 µg/mL.

`CO[C@H]1/C=C/O[C@@]2(C)Oc3c(C)c(O)c4c(O)c(c(/C=N/N5CCN(C)CC5)c(O)c4c3C2=O)NC(=O)/C(C)=C\C=C\[C@H](C)[C@H](O)[C@@H](C)[C@@H](O)[C@@H](C)[C@H](OC(C)=O)[C@@H]1C` [rifampicin]: the MIC in assay [8] was over 100 µg/mL.

Regarding `[H]/N=C(/N)N[C@H]1[C@H](O)[C@@H](O)[C@H](O[C@@H]2O[C@@H](C)[C@](O)(C=O)[C@H]2O[C@@H]2O[C@@H](CO)[C@H](O)[C@@H](O)[C@@H]2NC)[C@@H](N/C(N)=N\[H])[C@@H]1O` [streptomycin], the MIC in assay [9] was over 100 µg/mL.

In turn, `CN(C)C1C(=O)C(C(N)=O)=C(O)C2(O)C(=O)C3=C(O)c4c(O)cccc4C(C)(O)C3CC12` (centres unmarked) [tetracycline] showed an MIC in assay [10] of over 100 µg/mL.

For neomycin, the MIC in [11] is over 100 µg/mL.
